Experimental data as given in patent US8790719B2, “Phytocannabinoids in the treatment of cancer” (GW Pharma Limited, priority 2010, dated 2014).
Like-named read-outs stand apart in the source and are kept apart here.

Assays:
DU-145 = assay: Cell vitality (MTT assay), DU-145; assay type: cell-based; settings: Homo sapiens
Experimental: (§1) Cells were seeded in presence of FBS in 6 wells multiwell with a density of 8×10^4 cells/well (DU-145) or 1×10^5 cells/well (LNCaP). After 7 hours, cells were starved of dihydrotestosterone (DHT) for 15 hours and treated with increased concentrations of compounds for 24 or 48 hours (absence of serum was maintained during the treatments). Cell viability was assessed by MTT staining.
(§2) Phytocannabinoid BDS and their respective isolated phytocannabinoids were tested in both the hormone-insensitive (DU-145) prostate cancer cells and hormone-sensitive (LNCaP) prostate cancer cells. Three different phytocannabinoids were chosen for this experiment: CBG BDS and isolated compound, CBC BDS and isolated compound and CBD BDS and isolated compound.
(§3) The experiment was repeated in the hormone-insensitive (DU-145) prostate cancer cells and hormone-sensitive (LNCaP) prostate cancer cells that had not been starved of DHT. Here just the CBG BDS and isolated CBG are illustrated in Table 7.2 below.

LNCaP = assay: Cell vitality (MTT assay), LNCaP; assay type: cell-based; settings: Homo sapiens, read-out: IC50 on cell vitality
Experimental: as §1, §2, §3

[1] = biological target: T1, diacylglyceride lipase (DAGL) (Homo sapiens, UniProt Q9Y4D2); assay: Inhibition of diacylglyceride lipase (DAGL); assay type: biochemical
T1 sequence (Q9Y4D2 1-1042): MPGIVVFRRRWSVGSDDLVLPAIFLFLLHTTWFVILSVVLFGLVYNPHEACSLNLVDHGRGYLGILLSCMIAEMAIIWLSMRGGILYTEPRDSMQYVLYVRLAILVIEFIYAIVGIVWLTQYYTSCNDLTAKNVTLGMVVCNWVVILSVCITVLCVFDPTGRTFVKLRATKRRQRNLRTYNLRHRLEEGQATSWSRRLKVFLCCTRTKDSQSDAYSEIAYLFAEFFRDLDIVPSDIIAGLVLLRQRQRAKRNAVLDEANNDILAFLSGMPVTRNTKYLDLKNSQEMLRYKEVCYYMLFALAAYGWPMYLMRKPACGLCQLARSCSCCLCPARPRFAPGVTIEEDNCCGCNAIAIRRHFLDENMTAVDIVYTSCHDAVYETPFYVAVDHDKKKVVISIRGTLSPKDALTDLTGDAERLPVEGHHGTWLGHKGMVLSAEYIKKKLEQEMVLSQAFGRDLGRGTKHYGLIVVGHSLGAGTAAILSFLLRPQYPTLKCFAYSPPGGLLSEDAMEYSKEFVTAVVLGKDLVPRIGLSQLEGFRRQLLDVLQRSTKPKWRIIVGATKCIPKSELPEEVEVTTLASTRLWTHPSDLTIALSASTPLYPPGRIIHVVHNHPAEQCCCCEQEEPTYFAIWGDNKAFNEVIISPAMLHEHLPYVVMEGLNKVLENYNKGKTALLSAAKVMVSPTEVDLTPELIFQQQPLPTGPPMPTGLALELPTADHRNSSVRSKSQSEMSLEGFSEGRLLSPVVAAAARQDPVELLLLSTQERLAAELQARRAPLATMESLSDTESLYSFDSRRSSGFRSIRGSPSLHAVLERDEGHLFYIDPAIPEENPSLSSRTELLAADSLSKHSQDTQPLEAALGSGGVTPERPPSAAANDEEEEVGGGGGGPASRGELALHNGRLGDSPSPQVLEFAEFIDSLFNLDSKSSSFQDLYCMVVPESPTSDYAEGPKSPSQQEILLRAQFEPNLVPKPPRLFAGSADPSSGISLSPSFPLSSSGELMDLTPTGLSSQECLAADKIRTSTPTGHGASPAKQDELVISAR
Experimental: (§4) The effects of the phytocannabinoid BDS THCA, CBN, CBGA, CBDA and CBCV were tested to determine whether they were able to inhibit the MAGL and DAGL enzymes which are able to hydrolyse the endogenous cannabinoid 2-AG to arachidonic acid and glycerol. The results generated from these experiments are detailed in Table 5.1 below.

[2] = biological target: T2, monoacylglyceride lipase (MAGL) (Homo sapiens, UniProt Q99685); assay: Inhibition of monoacylglyceride lipase (MAGL); assay type: biochemical
T2 sequence (Q99685 1-303): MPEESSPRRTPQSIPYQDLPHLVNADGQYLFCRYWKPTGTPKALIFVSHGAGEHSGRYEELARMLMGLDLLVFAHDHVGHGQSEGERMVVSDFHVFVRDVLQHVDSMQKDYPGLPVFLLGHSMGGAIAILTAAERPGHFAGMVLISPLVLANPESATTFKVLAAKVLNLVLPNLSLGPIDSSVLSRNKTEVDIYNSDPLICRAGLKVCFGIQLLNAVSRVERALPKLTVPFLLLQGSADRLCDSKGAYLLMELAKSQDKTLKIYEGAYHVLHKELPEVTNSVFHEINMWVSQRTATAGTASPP
Experimental: as §4
For this experiment CBG BDS was used as this BDS was the easiest to purify and reconstitute. Four different test articles were used: CBG BDS, isolated CBG, CBG-free CBG BDS and CBG reconstituted BDS, whereby the CBG-free BDS (as prepared in Example 1) was spiked with isolated CBG at the same concentration of CBG as CBG BDS. Table 5.2 below details the data obtained.

GPR55 = biological target: T3, GPR55 (Homo sapiens, UniProt Q9Y2T6); assay: ERK Alphascreen assay using GPR55-HEK cells; assay type: cell-based
T3 construct: expressed in transfected cells; host or cells: HEK cells (GPR55-HEK)
Source text: An ERK Alphascreen assay was undertaken using GPR55-HEK cells.

[3] = system: MDA-MB-231 breast cancer cell line; assay: Cell viability of breast cancer cells (Alamar blue assay); assay type: cell-based; settings: 72 hours
Experimental: Cells were seeded in presence of FBS in 6 wells multiwell and treated with increased concentrations of compounds for 72 hours. Cell viability was assessed by Alamar blue staining.
Isolated phytocannabinoids were tested on the MDA-MB-231 breast cancer cell line in order to determine whether phytocannabinoids were effective in other types of cancer other than prostate cancer. The different isolated phytocannabinoids chosen for this experiment were: CBGA, CBDA, CBDV, CBD, THCV and THC.

Glioma cells = assay: Human glioma cell vitality (MTT assay); assay type: cell-based; settings: read-out: IC50 on glioma cell vitality
Experimental: Cells were seeded in presence of FBS in 6 wells multiwell with a density of 8×10^4 cells/well. Glioma cells were treated with increased concentrations of compounds and cell viability was assessed by MTT staining.
CBD BDS and isolated CBD, CBG and CBDV were tested.

[4] = system: Aberrant crypt focus (ACF), polyps and tumours; assay: Colon carcinogenesis in the mouse induced by azoxymethane; assay type: in vivo
Source text: Aberrant crypt focus (ACF), polyps and tumours were induced in the mouse by the carcinogenic substance azoxymethane. The phytocannabinoids were given (i.p.) to the mice three times per week for a period of three months. The COX-2 inhibitor celecoxib was used as a positive control.

[5] = system: hormone-insensitive prostate cancer cell line (DU-145); assay: Chemioluminescence assay for caspase 3/7 release (apoptosis), DU-145; assay type: cell-based, human; settings: high dose (25 μM), FIG. 2
Experimental: (§5) Two different concentrations of cannabinoids were tested; a low dose (10 μM) and a high dose (25 μM). The chemioluminescence that were recorded for each phytocannabinoid are detailed in FIG. 2.

[6] = system: hormone-sensitive prostate cancer cell line (LNCaP); assay: Chemioluminescence assay for caspase 3/7 release (apoptosis), LNCaP; assay type: cell-based, human; settings: high dose (25 μM), FIG. 2
Experimental: as §5

[7] = system: human glioma xenograft tumours; assay: Human glioma xenograft tumour volume; assay type: in vivo; set-up: unit not given here; settings: TMZ (100 μM) alone; Table 13.2
Experimental: The phytocannabinoids were also tested with the TMZ as is detailed in Table 13.2 below.

U87 glioma cells = assay: Viability of U87 glioma cells (MTT assay), THC, CBD, TMZ alone and combined; assay type: cell-based, human; settings: TMZ 100 μM alone, Table 12.2
[8] = system: hormone sensitive LNCaP cells; settings: 24-48 hours; cited from earlier work
[9] = DU-145, 24 h, read-out: IC50 on cell vitality
[10] = DU-145, 48 h, read-out: IC50 on cell vitality
[11] = read-out: Max concentration tested (% inhibition), DAGL
[12] = at 50 μM, read-out: Max concentration tested (% inhibition), MAGL

T3 sequence (Q9Y2T6 whole entry, species assumed): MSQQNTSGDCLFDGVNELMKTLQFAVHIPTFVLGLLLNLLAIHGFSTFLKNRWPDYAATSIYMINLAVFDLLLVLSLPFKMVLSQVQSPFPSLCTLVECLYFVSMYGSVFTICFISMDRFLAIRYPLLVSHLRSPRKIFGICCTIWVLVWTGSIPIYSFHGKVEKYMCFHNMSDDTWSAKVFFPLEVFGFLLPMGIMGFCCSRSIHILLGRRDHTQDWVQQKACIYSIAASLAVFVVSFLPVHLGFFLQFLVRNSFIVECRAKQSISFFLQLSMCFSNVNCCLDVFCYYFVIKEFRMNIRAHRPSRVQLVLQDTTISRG

SMILES: CCCCCc1cc(O)c2c(c1)OC(C)(CCC=C(C)C)C=C2 (stereo not drawn) [CBC, Cannabichromene]
- IC50 (DU-145; [9]): 7.5 µM
- IC50 (DU-145; [10]): 5.6 µM
- IC50 (LNCaP; 24 h): 10.8 µM
- IC50 (LNCaP; 48 h): 6 µM

SMILES: CCCc1cc(O)c2c(c1)OC(C)(CCC=C(C)C)C=C2 (stereo not drawn) [CBCV]
- inhibition at 50 µM [1, 11]: 18.9%
- IC50 ([2]; Table 5.1, read-out: MAG IC50): > 50 µM
- inhibition at 50 µM [2, 12]: 4.8%

SMILES: C=C(C)[C@@H]1CCC(C)=C[C@H]1c1c(O)cc(CCCCC)c(C(=O)O)c1O [CBDA, Cannabidiolic acid]
- inhibition at 100 µM ([1]; at 100 μM, read-out: Max concentration tested (% inhibition), DAGL): 91.4%
- Effect at GPR55 (GPR55): Antagonist
- IC50 ([2]; Table 5.1, read-out: MAG IC50): > 50 µM
- inhibition at 50 µM [2, 12]: 18.5%
- IC50 ([3]; Homo sapiens): 3.9 µM

SMILES: C=C(C)[C@@H]1CCC(C)=C[C@H]1c1c(O)cc(CCC)cc1O [CBDV, Cannabidivarin]
- Effect at GPR55 (GPR55): Antagonist
- IC50 (Glioma cells): 12.4 µM
- IC50 ([3]; Homo sapiens): 5 µM

SMILES: CCCCCc1cc(O)c(C/C=C(\C)CCC=C(C)C)c(O)c1 [CBG, Cannabigerol]
- EC50 ([2]; Table 5.2, BDS vs isolated vs reconstituted): 195 µM
- inhibition at 100 µM ([2]; Table 5.2, read-out: Max tested on MAGL % inhibition): 31.5%
- IC50 (DU-145; [9]): 11.8 µM
- IC50 (DU-145; [10]): 5.8 µM
- IC50 (DU-145; DU-145, read-out: IC50 on cell vitality): > 25 µM
- protective effect against the experimentally induced colon carcinogenesis ([4]; FIG. 6 a)): most statistically significant results
- formation of ACF with 4 or more crypts ([4]; FIG. 6 b)): no ACF with greater than 4 crypts
- numbers of tumours per animal ([4]; i.p. three times per week for three months; FIG. 5 c), FIG. 6 c)): no tumours were produced
- IC50 (LNCaP; 24 h): 10.8 µM
- IC50 (LNCaP; 48 h): 8.1 µM
- IC50 (LNCaP): > 25 µM
- IC50 (Glioma cells): 12.4 µM

SMILES: CCCCCc1cc(O)c(C/C=C(\C)CCC=C(C)C)c(O)c1C(=O)O [CBGA]
- IC50 ([1]; Table 5.1): 30 µM
- Max concentration tested (% inhibition), DAGL ([1]; at 100 μM): (67.5%)
- Effect at GPR55 (GPR55): Inverse agonist
- IC50 ([2]; Table 5.1, read-out: MAG IC50): > 50 µM
- Max concentration tested (% inhibition), MAGL ([2]; at 50 μM): (17.2%)
- IC50 [3]: 2.2 µM

SMILES: CCCc1cc(O)c(C/C=C(\C)CCC=C(C)C)c(O)c1 [CBGV, Cannabigerol propyl variant]
- Effect at GPR55 (GPR55): Antagonist

SMILES: CCCCCc1cc(O)c2c(c1)OC(C)(C)c1ccc(C)cc1-2 [CBN, Cannabinol]
- inhibition at 50 µM [1, 11]: 26.9%
- IC50 [2]: > 50 µM
- inhibition at 50 µM [2, 12]: 31.5%

SMILES: CCCCCc1cc2c(c(O)c1C(=O)O)[C@@H]1C=C(C)CC[C@H]1C(C)(C)O2 [THCA, Tetrahydrocannabinolic acid]
- inhibition at 50 µM [1, 11]: 79.3%
- IC50 [2]: 46 µM
- inhibition at 100 µM ([2]; read-out: Max concentration tested (% inhibition), MAGL): 81.9%

SMILES: CCCc1cc(O)c2c(c1)OC(C)(C)[C@@H]1CCC(C)=C[C@@H]21 [THCV, Tetrahydrocannabivarin]
- pro-apoptotic effect (chemioluminescence, caspase 3/7 release) [5]: apotosis levels over that of the control
- Effect at GPR55 (GPR55): Antagonist (at low concentrations)
- IC50 ([3]; Homo sapiens): 6.5 µM

SMILES: CCCc1cc2c(c(O)c1C(=O)O)[C@@H]1C=C(C)CC[C@H]1C(C)(C)O2 [THCVA, Tetrahydrocannabivarinic acid]
- pro-apoptotic effect (chemioluminescence, caspase 3/7 release) [5]: highest pro-apoptotic effects
- pro-apoptotic effect (chemioluminescence, caspase 3/7 release) [6]: highest pro-apoptotic effect

SMILES: Cn1nnc2c(C(N)=O)ncn2c1=O [TMZ, temazolamide, reference compound]
- Tumour volume (increase from day 1) [7]: 4.1
- Cell Viability (%) (U87 glioma cells): 82%

SMILES: Cc1c(C(=O)c2cccc3ccccc23)c2cccc3c2n1[C@H](CN1CCOCC1)CO3 [WIN-55,212-2]
- inhibition of cell growth [8]: inhibition of cell growth
